{
  "source": "patent US8110605B2",
  "about": "“Compound for inactivating viruses and bacteria and method of making same” (priority 2009, dated 2012)",
  "key": {"[1]": {"system": "Tamiflu™-resistant strain H1N1 influenza virus (A/TW/066/09)", "format": "cell-based"}, "[2]": {"system": "Tamiflu™-resistant H1N1 subtype influenza virus (A/TW/066/09) virions"}},
  "note": "Values joined by “and” are separate entries in the source; they are usually repeats but may differ in a detail not shown here. Equal values may be shown once. Read-outs that look alike come from different tables or passages of the source.",
  "data": [
    {"smiles": "O=C(O)C(CCCCCCCCCCS)C(=O)O", "note": "[2-(10-mercaptodecyl)-propanedioic acid]", "values": [
      {"measurement": "concentration protecting cells against infection by Tamiflu-resistant H1N1 influenza virus (as low as)", "setting": "[1]", "value": 30, "unit": "ppm"},
      {"measurement": "CPE, Tamiflu-resistant H1N1 influenza virus treated with compound", "setting": "[1]; 3 ppm", "value": "+"},
      {"measurement": "CPE, Tamiflu-resistant H1N1 influenza virus treated with compound", "setting": "[1]; 30 ppm", "value": "−"},
      {"measurement": "CPE, Tamiflu-resistant H1N1 influenza virus treated with compound", "setting": "[1]; 100 ppm", "value": "−"},
      {"measurement": "CPE, Tamiflu-resistant H1N1 influenza virus treated with compound", "setting": "[1]; 300 ppm", "value": "−"},
      {"measurement": "CPE, Tamiflu-resistant H1N1 influenza virus treated with compound", "setting": "[1]; 1,000 ppm", "value": "CTX"},
      {"measurement": "CPE, Tamiflu-resistant H1N1 influenza virus treated with compound", "setting": "[1]; 3,000 ppm", "value": "CTX"},
      {"measurement": "maximum height of particles (AFM cursor profile)", "setting": "[2]", "value": "~6.95 nm and ~5.28 nm"},
      {"measurement": "viral morphology by AFM", "setting": "[2]", "value": "disrupted and somewhat flattened"},
      {"measurement": "calculated RMS height of treated particles", "setting": "[2]; 30 ppm", "value": "7.09±0.42", "unit": "nm"},
      {"measurement": "calculated RMS height of treated particles", "setting": "[2]; 300 ppm", "value": "5.39±0.23", "unit": "nm"}
    ]}
  ]
}
